According to US12140600B2, “Method for measuring activated partial thromboplastin time” (SYSMEX CORPORATION, priority 2019, dated 2024):

Experiment: Effect of suppressing precipitation of ellagic acid-metal ion complex (salting out, dynamic light scattering and visual check)
Format: physicochemical
Conditions: for degree of increase in particle size of complex with respect to the increase in salt concentration / precipitation, visually confirmed: additive 100 μM; for degree of increase in particle size of complex with respect to the increase in salt concentration: sodium chloride 10, 50 or 100 mM, FIG. 3; for precipitation, visually confirmed: sodium chloride concentration 100 mM; for precipitation suppressing effect versus additive concentration: additive at various concentrations, FIGS. 4A and 4B
Method: In an APTT reagent comprising a metal ion complex of ellagic acid as an activator, when the salt concentration increases, the complex particle size increases by the salting-out effect, and finally precipitation occurs. By utilizing the principle of salting out, the effect of suppressing the precipitation of various additives in ellagic acid-metal ion complex solutions was confirmed.
An ellagic acid-metal ion complex solution was prepared to contain 50 mM HEPES, 8 mM TAPS, and 1% by mass glycine as buffer components, 100 μM ellagic acid, 60 μM zinc chloride, and 50 μM aluminum chloride as a metal ion complex of ellagic acid, and 0.05% ProClin (trademark) 300 (Sigma-Aldrich Co., LLC.) as a preservative. A complex solution comprising each additive at a concentration of 100 μM was obtained by mixing this solution with any one selected from gallic acid, pyrogallol, hydroquinone, 5-methylpyrogallol, resorcinol, or cyclohexanetriol as an additive. As a control, an ellagic acid-metal ion complex solution not comprising an additive was used.
Each complex solution prepared in (1) above was mixed with a 5 M sodium chloride solution to obtain a mixed solution (test group) having a sodium chloride concentration of 10 mM, 50 mM, or 100 mM. The relationship between the salt concentration in each mixed solution and the average particle size of complex was confirmed by a dynamic scattered light method using Zetasizer Nano (Malvern Panalytical Ltd.). The results are illustrated in FIG. 3.
The effect of suppressing precipitation was confirmed in the same manner as in (2) above using the complex solutions containing gallic acid or pyrogallol at various concentrations. The results are illustrated in FIGS. 4A and 4B.

SMILES	degree of increase in particle size of complex with respect to the increase in salt concentration	precipitation, visually confirmed	precipitation suppressing effect versus additive concentration
Oc1cccc(O)c1O [pyrogallol]	small	precipitation has not been visually confirmed	precipitation suppressing effect is observed at all concentrations
O=C(O)c1cc(O)c(O)c(O)c1 [gallic acid]	small	precipitation has not been visually confirmed	precipitation suppressing effect is observed at all concentrations
